# Patent US8962596B2 (Array BioPharma Inc., priority 2010, dated 2015)
# Key:
# Assay type in all cases: biochemical
# JAK2 = target: T1, JAK2 (Homo sapiens, UniProt O60674); test: JAK2 Inhibition Assay (Omnia kinase fluorescence peptide substrate assay); conditions: averaged IC50 ranges; assay of Example C; 25 μM (Km app) or 1 mM ATP, 5 nM JAK2
# T1 construct: purchased Invitrogen Corporation, Carlsbad, Calif; PV4288
# How it was run: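 A 10-point, 3-fold compound series (top 10 μM, 2% DMSO) was tested against 5 nM JAK2 with 10 μM Omnia Y7 substrate and either 1 mM or 25 μM (Km app) ATP. Buffer: pH 7.4 HEPES, MgCl2, Triton X-100, DTT. Sox fluorescence was monitored kinetically for 45 min; IC50 is the concentration giving 50 POC on a 4-parameter fit.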
# JAK1 = target: T2, JAK1 (Homo sapiens, UniProt P23458); test: JAK1 Inhibition Assay (Omnia kinase fluorescence peptide substrate assay); conditions: averaged IC50 ranges; assay of Example B; 40 μM (Km app) or 1 mM ATP, 15 nM JAK1
# T2 construct: purchased Invitrogen Corporation, Carlsbad, Calif; PV4775
# T2 sequence (P23458 whole entry): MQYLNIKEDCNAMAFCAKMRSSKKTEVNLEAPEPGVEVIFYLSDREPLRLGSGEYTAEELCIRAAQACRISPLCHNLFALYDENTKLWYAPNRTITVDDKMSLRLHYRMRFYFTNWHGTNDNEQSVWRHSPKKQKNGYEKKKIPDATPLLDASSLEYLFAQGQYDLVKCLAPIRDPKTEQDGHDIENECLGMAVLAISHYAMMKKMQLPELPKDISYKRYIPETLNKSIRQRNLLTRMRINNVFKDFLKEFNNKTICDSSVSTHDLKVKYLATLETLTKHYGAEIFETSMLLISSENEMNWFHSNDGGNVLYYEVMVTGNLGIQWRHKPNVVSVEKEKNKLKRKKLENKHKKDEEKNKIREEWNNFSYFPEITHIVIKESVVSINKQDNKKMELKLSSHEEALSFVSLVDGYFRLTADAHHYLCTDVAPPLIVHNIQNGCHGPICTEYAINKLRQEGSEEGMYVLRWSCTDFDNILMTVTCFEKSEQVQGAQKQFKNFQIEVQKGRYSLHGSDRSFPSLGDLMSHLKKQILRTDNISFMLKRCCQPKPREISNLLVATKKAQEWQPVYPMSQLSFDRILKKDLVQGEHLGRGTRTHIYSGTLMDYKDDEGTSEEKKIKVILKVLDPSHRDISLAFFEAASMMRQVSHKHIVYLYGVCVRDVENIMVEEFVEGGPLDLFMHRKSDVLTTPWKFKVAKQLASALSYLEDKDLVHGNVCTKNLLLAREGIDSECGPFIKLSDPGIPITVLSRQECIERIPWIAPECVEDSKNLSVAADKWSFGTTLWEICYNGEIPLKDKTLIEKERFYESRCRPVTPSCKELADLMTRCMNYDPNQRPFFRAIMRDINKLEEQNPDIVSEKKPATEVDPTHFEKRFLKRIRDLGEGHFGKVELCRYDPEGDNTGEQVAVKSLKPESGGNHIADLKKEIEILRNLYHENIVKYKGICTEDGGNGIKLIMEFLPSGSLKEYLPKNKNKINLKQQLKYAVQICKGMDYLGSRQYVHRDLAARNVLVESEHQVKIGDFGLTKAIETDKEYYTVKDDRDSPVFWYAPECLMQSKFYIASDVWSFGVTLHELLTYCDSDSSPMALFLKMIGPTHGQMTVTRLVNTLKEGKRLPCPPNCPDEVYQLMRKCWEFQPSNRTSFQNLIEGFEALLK
# JAK3 = target: T3, JAK3 (Homo sapiens, UniProt P52333); test: JAK3 Inhibition Assay (Omnia kinase fluorescence peptide substrate assay); conditions: averaged IC50 ranges; assay of Example D; 10 μM (Km app) or 1 mM ATP, 2.5 nM JAK3
# T3 construct: purchased Invitrogen Corporation, Carlsbad, Calif; PV4080
# T3 sequence (P52333 1-1124): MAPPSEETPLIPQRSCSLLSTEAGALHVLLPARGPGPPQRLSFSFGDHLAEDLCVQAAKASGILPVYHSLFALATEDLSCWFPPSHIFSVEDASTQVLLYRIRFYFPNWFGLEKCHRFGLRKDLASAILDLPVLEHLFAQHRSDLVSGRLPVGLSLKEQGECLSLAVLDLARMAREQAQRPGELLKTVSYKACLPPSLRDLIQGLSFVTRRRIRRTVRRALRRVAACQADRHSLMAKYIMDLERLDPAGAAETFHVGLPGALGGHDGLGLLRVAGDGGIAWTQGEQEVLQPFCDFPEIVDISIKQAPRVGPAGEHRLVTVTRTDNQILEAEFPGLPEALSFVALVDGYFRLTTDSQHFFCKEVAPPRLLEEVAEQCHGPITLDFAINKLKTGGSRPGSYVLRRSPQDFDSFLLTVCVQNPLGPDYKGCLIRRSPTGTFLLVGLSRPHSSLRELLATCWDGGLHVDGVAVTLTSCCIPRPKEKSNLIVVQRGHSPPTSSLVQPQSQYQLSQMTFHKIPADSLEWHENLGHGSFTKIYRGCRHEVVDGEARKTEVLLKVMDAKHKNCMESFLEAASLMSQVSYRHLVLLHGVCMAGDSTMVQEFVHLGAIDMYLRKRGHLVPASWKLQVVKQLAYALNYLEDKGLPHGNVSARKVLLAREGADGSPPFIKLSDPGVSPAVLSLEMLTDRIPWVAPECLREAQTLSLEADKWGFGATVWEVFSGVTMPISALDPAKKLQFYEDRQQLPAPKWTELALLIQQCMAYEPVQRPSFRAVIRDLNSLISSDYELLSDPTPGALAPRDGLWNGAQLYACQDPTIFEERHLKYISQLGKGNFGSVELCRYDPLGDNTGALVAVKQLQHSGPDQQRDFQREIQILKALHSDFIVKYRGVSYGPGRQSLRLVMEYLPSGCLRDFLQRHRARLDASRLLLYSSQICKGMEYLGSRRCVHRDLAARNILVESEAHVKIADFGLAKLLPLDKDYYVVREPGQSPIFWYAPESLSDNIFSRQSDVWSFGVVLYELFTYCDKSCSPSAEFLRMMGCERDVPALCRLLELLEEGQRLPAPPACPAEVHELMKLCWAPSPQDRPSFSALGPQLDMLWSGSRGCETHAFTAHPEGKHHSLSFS
# How it was run: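 Kinase at 2.5 nM with 10 µM Omnia Y7 peptide and 10 µM (Km app) or 1 mM ATP in 25 mM HEPES pH 7.4, 10 mM MgCl2, 1 mM DTT, 0.01% Triton X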
# Human Tyk2 kinase domain = target: T4, Human Tyk2 kinase domain (Homo sapiens, UniProt P29597); test: Tyk2 Inhibition Assay (Omnia kinase fluorescence peptide substrate assay); conditions: averaged IC50 ranges; assay of Example A; 10 μM (Km app) or 1 mM ATP, 2 nM Tyk2
# T4 construct: comprising amino acids 886 to 1187 with 10 additional histidine residues; 10xHis (histidine tag) (C, cleaved yes); made in house
# T4 sequence (P29597 886-1187): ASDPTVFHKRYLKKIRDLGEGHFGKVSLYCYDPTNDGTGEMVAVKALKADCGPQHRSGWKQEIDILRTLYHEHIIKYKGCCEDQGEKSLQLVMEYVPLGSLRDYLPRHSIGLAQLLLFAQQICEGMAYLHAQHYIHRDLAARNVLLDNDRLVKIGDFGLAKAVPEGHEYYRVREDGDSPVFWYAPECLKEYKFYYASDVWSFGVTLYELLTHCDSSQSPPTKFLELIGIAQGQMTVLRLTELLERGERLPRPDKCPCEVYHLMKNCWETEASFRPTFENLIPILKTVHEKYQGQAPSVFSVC
# How it was run: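 2 nM His-tag-cleaved kinase domain (aa 886–1187) with 8 μM Omnia Y12 peptide, 10 μM (Km app) or 1 mM ATP, pH 7.4 HEPES/10 mM MgCl2, 2% DMSO. Fluorescence (ex 360/em 485 nm) every 50 s for 45 min; IC50 from 4-parameter fit of POC, top dose 10 μM.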
# T1 sequence (O60674 whole entry): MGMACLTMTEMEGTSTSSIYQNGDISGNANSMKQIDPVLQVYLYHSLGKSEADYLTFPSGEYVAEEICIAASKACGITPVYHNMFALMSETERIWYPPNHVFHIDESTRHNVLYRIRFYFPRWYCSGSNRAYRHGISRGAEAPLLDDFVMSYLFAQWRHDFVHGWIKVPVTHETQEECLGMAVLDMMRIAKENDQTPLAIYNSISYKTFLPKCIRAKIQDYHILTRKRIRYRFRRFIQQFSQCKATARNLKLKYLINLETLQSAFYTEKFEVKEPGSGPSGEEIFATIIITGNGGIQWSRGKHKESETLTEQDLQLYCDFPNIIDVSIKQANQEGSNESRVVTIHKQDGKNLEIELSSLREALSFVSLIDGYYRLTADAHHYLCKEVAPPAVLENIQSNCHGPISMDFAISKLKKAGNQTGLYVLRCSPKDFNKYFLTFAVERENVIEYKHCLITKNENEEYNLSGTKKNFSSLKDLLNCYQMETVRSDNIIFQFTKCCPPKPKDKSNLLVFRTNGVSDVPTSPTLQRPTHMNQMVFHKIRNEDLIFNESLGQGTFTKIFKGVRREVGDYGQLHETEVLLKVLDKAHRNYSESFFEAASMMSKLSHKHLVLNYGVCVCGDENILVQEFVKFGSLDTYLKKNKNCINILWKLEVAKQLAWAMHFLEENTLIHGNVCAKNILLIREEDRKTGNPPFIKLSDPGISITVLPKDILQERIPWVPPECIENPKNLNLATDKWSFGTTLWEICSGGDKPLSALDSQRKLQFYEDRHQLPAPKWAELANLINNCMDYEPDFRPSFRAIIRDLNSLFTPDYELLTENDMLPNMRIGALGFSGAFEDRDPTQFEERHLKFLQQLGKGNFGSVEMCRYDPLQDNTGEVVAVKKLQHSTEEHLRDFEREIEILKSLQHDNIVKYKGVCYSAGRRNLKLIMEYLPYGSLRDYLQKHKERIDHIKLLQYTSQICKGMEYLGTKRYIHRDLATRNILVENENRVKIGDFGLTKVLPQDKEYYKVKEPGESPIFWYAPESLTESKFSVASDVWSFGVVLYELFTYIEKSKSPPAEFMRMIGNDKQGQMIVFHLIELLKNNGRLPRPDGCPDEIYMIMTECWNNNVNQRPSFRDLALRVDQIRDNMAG
IC50 (JAK2),IC50 (JAK1),IC50 (JAK3),IC50 (Human Tyk2 kinase domain),Structure (SMILES)
0.01 to 0.1 µM,0.01 to 0.1 µM,0.1 to 1 µM,< 0.01 µM,"N#CCC(C1CCCC1)n1cc(-c2nc(-c3ccc(N4CCOCC4)cc3)cc3nccn23)cn1 (centres unmarked) [Example 113, 3-Cyclopentyl-3-(4-(7-(4-morpholinophenyl)imidazo[1,2-c]pyrimidin-5-yl)-1H-pyrazol-1-yl)propanenitrile]"
0.01 to 0.1 µM,0.1 to 1 µM,> 1 µM,0.01 to 0.1 µM,"CC(C)Cn1cc(-c2cc3nccn3c(-c3cnn(C(CC#N)C4CC4)c3)n2)cn1 (centres unmarked) [Example 37, 3-cyclopropyl-3-(4-(7-(1-isobutyl-1H-pyrazol-4-yl)imidazo[1,2-c]pyrimidin-5-yl)-1H-pyrazol-1-yl)propanenitrile]"
0.1 to 1 µM,0.1 to 1 µM,> 1 µM,0.01 to 0.1 µM,"N#CCC(C1CC1)n1cc(-c2nc(-c3cncs3)cc3nccn23)cn1 (centres unmarked) [Example 47, 3-Cyclopropyl-3-(4-(7-(thiazol-5-yl)imidazo[1,2-c]pyrimidin-5-yl)-1H-pyrazol-1-yl)propanenitrile]"
0.01 to 0.1 µM,0.01 to 0.1 µM,0.1 to 1 µM,< 0.01 µM,"N#CCC(C1CC1)n1cc(-c2nc(-c3cnn(C4CCC4)c3)cc3nccn23)cn1 (centres unmarked) [Example 42, 3-(4-(7-(1-cyclobutyl-1H-pyrazol-4-yl)imidazo[1,2-c]pyrimidin-5-yl)-1H-pyrazol-1-yl)-3-cyclopropylpropanenitrile]"
0.01 to 0.1 µM,0.1 to 1 µM,0.1 to 1 µM,< 0.01 µM,"N#CCC(C1CC1)n1cc(-c2nc(-c3cnn(C4COC4)c3)cc3nccn23)cn1 (centres unmarked) [Example 38, 3-Cyclopropyl-3-(4-(7-(1-(oxetan-3-yl)-1H-pyrazol-4-yl)imidazo[1,2-c]pyrimidin-5-yl)-1H-pyrazol-1-yl)propanenitrile]"
0.01 to 0.1 µM,0.1 to 1 µM,0.1 to 1 µM,0.01 to 0.1 µM,"Cn1cc(-c2cc3nccn3c(-c3cnn(C4(CC#N)CN(C(=O)CC(F)(F)F)C4)c3)n2)cn1 [Example 64, 2-(3-(4-(7-(1-Methyl-1H-pyrazol-4-yl)imidazo[1,2-c]pyrimidin-5-yl)-1H-pyrazol-1-yl)-1-(3,3,3-trifluoropropanoyl)azetidin-3-yl)acetonitrile]"
< 0.01 µM,0.01 to 0.1 µM,0.1 to 1 µM,< 0.01 µM,"Cn1cc(-c2cc3ncc(F)n3c(-c3cnn(C4(CC#N)CN(S(=O)(=O)C(F)(F)F)C4)c3)n2)cn1 [Example 154, 2-(3-(4-(3-fluoro-7-(1-methyl-1H-pyrazol-4-yl)imidazo[1,2-c]pyrimidin-5-yl)-1H-pyrazol-1-Y1)-1-((trifluoromethyl)sulfonyl)azetidin-3-yl)acetonitrile]"
0.01 to 0.1 µM,0.1 to 1 µM,0.1 to 1 µM,0.01 to 0.1 µM,"Cn1cc(-c2cc3nccn3c(-c3cnn(C4(CC#N)CCN(CC(F)(F)F)C4)c3)n2)cn1 (centres unmarked) [Example 135, 2-(3-(4-(7-(1-methyl-1H-pyrazol-4-yl)imidazo[1,2-c]pyrimidin-5-yl)-1H-pyrazol-1-yl)-1-(2,2,2-trifluoroethyl)pyrrolidin-3-yl)acetonitrile]"
0.01 to 0.1 µM,0.01 to 0.1 µM,0.1 to 1 µM,< 0.01 µM,"Cn1cc(-c2cc3nccn3c(-c3cnn(C(CC#N)c4cccc(C(F)(F)F)c4)c3)n2)cn1 (centres unmarked) [Example 15, 3-(4-(7-(1-methyl-1H-pyrazol-4-yl)imidazo[1,2-c]pyrimidin-5-yl)-1H-pyrazol-1-yl)-3-(3-(trifiuoromethyl)phenyl)propanenitrile]"
0.1 to 1 µM,0.1 to 1 µM,> 1 µM,< 0.01 µM,"CCCS(=O)(=O)N1CC(CC#N)(n2cc(-c3nc(-c4cnn(C)c4)cc4nccn34)cn2)C1 [Example 93, 2-(3-(4-(7-(1-methyl-1H-pyrazol-4-yl)imidazo[1,2-c]pyrimidin-5-yl)-1H-pyrazol-1-yl)-1-(propylsulfonyl)azetidin-3-yl)acetonitrile]"
0.01 to 0.1 µM,0.01 to 0.1 µM,> 1 µM,< 0.01 µM,"Cn1cc(-c2cc3nccn3c(-c3cnn(C(CC#N)C4CCCC4)c3)n2)cn1 (centres unmarked) [Example 17, 3-cyclopentyl-3-(4-(7-(1-methyl-1H-pyrazol-4-yl)imidazo[1,2-c]pyrimidin-5-yl)-1H-pyrazol-1-yl)propanenitrile]"
0.01 to 0.1 µM,0.1 to 1 µM,> 1 µM,< 0.01 µM,"Cn1cc(-c2cc3nccn3c(-c3cnn(C(CC#N)C4CC4)c3)n2)cn1 (centres unmarked) [Example 2, 3-Cyclopropyl-3-(4-(7-(1-methyl-1H-pyrazol-4-yl)imidazo[1,2-c]pyrimidin-5-yl)-1H-pyrazol-1-yl)propanenitrile]"
0.1 to 1 µM,0.1 to 1 µM,> 1 µM,0.01 to 0.1 µM,"C#CCN1CC(CC#N)(n2cc(-c3nc(-c4cnn(C)c4)cc4nccn34)cn2)C1 [Example 76, 2-(3-(4-(7-(1-methyl-1H-pyrazol-4-yl)imidazo[1,2-c]pyrimidin-5-yl)-1H-pyrazol-1-yl)-1-(prop-2-ynyl)azetidin-3-yl)acetonitrile]"
0.1 to 1 µM,0.1 to 1 µM,> 1 µM,0.01 to 0.1 µM,"Cn1cc(-c2cc3nccn3c(-c3cnn(C(CC#N)C(C)(C)C)c3)n2)cn1 (centres unmarked) [Example 18, 4,4-dimethyl-3-(4-(7-(1-methyl-1H-pyrazol-4-yl)imidazo[1,2-c]pyrimidin-5-yl)-1H-pyrazol-1-yl)pentanenitrile]"
0.1 to 1 µM,0.1 to 1 µM,> 1 µM,0.01 to 0.1 µM,"CN1CCn2c(-c3cc4nccn4c(-c4cnn(C(CC#N)C5CC5)c4)n3)cnc2C1 (centres unmarked) [Example 57, 3-cyclopropyl-3-(4-(7-(7-methyl-5,6,7,8-tetrahydroimidazo[1,2-a]pyrazin-3-yl)imidazo[1,2-c]pyrimidin-5-yl)-1H-pyrazol-1-yl)propanenitrile]"
0.1 to 1 µM,> 1 µM,> 1 µM,0.1 to 1 µM,"Cc1nn(CCC#N)cc1-c1nc(-c2cnn(C)c2)cc2nccn12 [Example 106, 3-(3-methyl-4-(7-(1-methyl-1H-pyrazol-4-yl)imidazo[1,2-c]pyrimidin-5-yl)-1H-pyrazol-1-yl)propanenitrile]"
> 1 µM,> 1 µM,> 1 µM,0.1 to 1 µM,"CC#CCN1CC(CC#N)(n2cc(-c3nc(-c4cnn(C)c4)cc4nccn34)cn2)C1 [Example 75, 2-(1-(but-2-ynyl)-3-(4-(7-(1-methyl-1H-pyrazol-4-yl)imidazo[1,2-c]pyrimidin-5-yl)-1H-pyrdzol-1-yl)azetidin-3-yl)acetonitrile]"
